Legend:
Assay in all cases: Kinase panel profiling
Format in all cases: biochemical
Settings in all cases: 10 μM ATP
[1] = biological target: T1, MYLK3 (Homo sapiens, UniProt Q32MK0)
T1 construct: purchased Reaction Biology Corp
Protocol: (§1) Kinase panel profiling was conducted by Reaction Biology Corp. (San Diego, CA, USA). A single dose (1.0 μM) of 6r was tested against 371 recombinant human kinases in the presence of 10 μM ATP.

[2] = biological target: T2, MELK (Homo sapiens, UniProt Q14680)
T2 construct: purchased Reaction Biology Corp
Protocol: as §1

[3] = biological target: T3, PAK3 (Homo sapiens, UniProt O75914)
T3 construct: purchased Reaction Biology Corp
Protocol: as §1

[4] = biological target: T4, PBK/TOPK (Homo sapiens, UniProt Q96KB5)
T4 construct: purchased Reaction Biology Corp
T4 sequence (Q96KB5 whole entry): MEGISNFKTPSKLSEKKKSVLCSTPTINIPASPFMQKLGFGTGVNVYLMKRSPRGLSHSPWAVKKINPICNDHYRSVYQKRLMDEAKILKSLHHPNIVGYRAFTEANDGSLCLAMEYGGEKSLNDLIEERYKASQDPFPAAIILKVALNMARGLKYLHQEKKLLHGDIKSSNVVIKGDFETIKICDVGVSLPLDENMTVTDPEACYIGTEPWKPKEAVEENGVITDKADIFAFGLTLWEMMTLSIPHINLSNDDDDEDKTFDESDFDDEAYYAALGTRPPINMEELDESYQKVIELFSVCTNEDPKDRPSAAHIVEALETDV
Protocol: as §1

[5] = biological target: T5, SIK3 (Homo sapiens, UniProt Q9Y2K2)
T5 construct: purchased Reaction Biology Corp
T5 sequence (Q9Y2K2 whole entry): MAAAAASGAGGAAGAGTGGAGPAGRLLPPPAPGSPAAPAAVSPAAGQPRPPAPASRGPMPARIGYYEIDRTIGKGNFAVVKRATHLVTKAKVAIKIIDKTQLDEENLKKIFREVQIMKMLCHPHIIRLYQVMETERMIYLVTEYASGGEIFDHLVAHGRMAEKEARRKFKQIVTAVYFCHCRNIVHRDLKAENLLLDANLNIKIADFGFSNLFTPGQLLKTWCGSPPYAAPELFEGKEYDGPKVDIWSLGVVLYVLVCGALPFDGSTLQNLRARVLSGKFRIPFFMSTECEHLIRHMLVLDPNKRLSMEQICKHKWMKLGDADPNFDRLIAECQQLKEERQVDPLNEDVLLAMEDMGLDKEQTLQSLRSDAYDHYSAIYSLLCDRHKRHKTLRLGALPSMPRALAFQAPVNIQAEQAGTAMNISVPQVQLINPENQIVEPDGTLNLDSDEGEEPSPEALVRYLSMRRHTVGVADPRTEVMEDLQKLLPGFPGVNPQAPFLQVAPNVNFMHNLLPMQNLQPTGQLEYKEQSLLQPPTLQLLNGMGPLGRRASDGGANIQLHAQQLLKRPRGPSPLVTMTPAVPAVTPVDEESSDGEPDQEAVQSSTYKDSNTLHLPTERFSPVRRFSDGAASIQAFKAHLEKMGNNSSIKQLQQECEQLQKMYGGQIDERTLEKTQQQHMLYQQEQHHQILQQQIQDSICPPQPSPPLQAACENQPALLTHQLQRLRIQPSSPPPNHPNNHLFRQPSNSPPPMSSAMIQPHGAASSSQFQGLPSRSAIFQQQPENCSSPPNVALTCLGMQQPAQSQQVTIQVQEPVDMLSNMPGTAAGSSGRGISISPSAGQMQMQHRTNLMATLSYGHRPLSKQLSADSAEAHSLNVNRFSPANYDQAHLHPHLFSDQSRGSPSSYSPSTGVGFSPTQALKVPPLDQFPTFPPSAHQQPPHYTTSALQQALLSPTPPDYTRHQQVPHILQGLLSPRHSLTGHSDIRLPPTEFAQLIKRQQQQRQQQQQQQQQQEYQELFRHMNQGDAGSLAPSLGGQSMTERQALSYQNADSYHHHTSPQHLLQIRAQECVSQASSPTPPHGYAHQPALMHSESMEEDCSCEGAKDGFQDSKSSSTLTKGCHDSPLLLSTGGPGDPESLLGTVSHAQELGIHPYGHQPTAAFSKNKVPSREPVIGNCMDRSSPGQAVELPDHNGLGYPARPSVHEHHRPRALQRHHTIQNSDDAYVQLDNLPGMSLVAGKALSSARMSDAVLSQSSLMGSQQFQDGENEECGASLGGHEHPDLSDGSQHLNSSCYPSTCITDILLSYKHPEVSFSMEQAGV
Protocol: as §1

[6] = biological target: T6, CK2a (Homo sapiens, UniProt P68400)
T6 construct: purchased Reaction Biology Corp
Protocol: as §1

[7] = biological target: T7, SLK/STK2 (Homo sapiens, UniProt Q9H2G2)
T7 construct: purchased Reaction Biology Corp
Protocol: as §1

[8] = biological target: T8, MAPKAPK2 (Homo sapiens, UniProt P49137)
T8 construct: purchased Reaction Biology Corp
Protocol: as §1

[9] = biological target: T9, FER (Homo sapiens, UniProt P16591)
T9 construct: purchased Reaction Biology Corp
Protocol: as §1

[10] = biological target: T10, MRCKa/CDC42BPA (Homo sapiens, UniProt Q5VT25)
T10 construct: purchased Reaction Biology Corp
Protocol: as §1

[11] = biological target: T11, RSK2 (Homo sapiens, UniProt P51812)
T11 construct: purchased Reaction Biology Corp
Protocol: as §1

[12] = biological target: T12, CDK6/cyclin D3 (Homo sapiens, UniProt Q00534)
T12 construct: purchased Reaction Biology Corp
Protocol: as §1

[13] = biological target: T13, ALK (Homo sapiens, UniProt Q9UM73)
T13 construct: purchased Reaction Biology Corp
Protocol: as §1

[14] = biological target: T14, ROS/ROS1 (Homo sapiens, UniProt P08922)
T14 construct: purchased Reaction Biology Corp
T14 sequence (P08922 28-2347): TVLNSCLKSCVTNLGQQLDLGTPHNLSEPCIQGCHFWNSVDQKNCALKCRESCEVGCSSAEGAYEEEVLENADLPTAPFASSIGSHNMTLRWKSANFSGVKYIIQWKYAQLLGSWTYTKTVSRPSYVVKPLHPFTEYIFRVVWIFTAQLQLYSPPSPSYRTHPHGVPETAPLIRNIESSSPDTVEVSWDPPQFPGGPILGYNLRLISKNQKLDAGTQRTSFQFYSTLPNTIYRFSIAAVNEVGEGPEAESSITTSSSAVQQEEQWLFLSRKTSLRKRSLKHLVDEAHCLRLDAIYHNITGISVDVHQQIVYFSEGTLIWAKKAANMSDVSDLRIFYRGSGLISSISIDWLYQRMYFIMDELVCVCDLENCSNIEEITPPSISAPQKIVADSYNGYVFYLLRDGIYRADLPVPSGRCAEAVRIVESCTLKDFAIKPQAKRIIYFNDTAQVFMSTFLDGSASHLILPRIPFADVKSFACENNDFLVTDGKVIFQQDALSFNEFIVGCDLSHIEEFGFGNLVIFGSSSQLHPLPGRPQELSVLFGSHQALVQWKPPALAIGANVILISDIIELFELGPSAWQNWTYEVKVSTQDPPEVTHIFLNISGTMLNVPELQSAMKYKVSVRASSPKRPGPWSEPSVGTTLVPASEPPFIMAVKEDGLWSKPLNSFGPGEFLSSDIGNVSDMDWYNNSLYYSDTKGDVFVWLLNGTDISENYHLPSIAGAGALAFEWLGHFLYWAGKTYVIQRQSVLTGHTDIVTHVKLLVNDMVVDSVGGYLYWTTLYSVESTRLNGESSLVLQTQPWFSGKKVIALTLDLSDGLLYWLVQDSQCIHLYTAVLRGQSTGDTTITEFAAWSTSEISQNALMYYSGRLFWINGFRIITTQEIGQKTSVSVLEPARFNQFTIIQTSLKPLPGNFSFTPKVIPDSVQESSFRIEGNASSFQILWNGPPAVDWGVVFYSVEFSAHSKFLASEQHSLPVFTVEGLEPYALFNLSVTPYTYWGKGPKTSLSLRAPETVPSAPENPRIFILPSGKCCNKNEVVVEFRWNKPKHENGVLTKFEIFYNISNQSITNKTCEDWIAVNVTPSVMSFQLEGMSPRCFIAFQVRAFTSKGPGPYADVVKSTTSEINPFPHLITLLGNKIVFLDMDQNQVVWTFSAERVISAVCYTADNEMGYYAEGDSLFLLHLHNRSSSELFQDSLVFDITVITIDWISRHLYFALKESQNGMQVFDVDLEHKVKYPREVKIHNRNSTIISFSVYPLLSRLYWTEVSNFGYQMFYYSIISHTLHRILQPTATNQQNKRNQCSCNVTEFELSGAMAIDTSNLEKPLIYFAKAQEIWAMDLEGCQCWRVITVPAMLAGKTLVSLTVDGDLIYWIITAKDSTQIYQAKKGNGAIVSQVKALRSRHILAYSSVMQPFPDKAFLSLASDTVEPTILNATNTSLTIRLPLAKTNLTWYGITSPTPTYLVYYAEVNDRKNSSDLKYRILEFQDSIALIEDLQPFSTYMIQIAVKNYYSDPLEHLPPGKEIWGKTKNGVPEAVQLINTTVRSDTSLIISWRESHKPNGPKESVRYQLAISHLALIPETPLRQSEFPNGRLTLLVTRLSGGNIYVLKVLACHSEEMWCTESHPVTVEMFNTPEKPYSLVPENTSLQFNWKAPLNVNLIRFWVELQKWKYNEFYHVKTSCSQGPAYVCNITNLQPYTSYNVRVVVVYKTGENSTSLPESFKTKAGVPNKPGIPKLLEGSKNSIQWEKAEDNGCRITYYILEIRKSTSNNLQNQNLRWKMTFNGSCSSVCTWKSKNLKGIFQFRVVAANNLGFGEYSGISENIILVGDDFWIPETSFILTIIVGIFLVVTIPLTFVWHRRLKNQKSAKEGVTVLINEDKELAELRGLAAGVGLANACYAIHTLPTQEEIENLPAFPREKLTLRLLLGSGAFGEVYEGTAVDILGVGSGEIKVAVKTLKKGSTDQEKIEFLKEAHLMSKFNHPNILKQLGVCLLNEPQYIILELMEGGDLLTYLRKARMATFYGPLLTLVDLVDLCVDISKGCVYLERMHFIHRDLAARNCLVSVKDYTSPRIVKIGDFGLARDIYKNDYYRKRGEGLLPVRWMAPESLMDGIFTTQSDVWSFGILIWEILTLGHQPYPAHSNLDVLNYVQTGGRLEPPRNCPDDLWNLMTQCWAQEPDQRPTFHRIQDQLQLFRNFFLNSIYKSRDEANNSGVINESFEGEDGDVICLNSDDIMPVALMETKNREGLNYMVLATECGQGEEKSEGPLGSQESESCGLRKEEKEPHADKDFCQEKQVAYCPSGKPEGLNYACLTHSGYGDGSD
Protocol: as §1

[15] = biological target: T15, c-MER (Homo sapiens, UniProt Q12866)
T15 construct: purchased Reaction Biology Corp
Protocol: as §1

[16] = biological target: T16, DYRK1/DYRK1A (Homo sapiens, UniProt Q13627)
T16 construct: purchased Reaction Biology Corp
Protocol: as §1

[17] = biological target: T17, IKKb/IKBKB (Homo sapiens, UniProt O14920)
T17 construct: purchased Reaction Biology Corp
Protocol: as §1

[18] = biological target: T18, GRK5 (Homo sapiens, UniProt P34947)
T18 construct: purchased Reaction Biology Corp
Protocol: as §1

[19] = biological target: T19, DYRK4 (Homo sapiens, UniProt Q9NR20)
T19 construct: purchased Reaction Biology Corp
Protocol: as §1

[20] = biological target: T20, EPHA3 (Homo sapiens, UniProt P29320)
T20 construct: purchased Reaction Biology Corp
Protocol: as §1

[21] = biological target: T21, CAMK2g (Homo sapiens, UniProt Q13555)
T21 construct: purchased Reaction Biology Corp
Protocol: as §1

[22] = biological target: T22, PYK2 (Homo sapiens, UniProt Q14289)
T22 construct: purchased Reaction Biology Corp
Protocol: as §1

[23] = biological target: T23, EPHA8 (Homo sapiens, UniProt P29322)
T23 construct: purchased Reaction Biology Corp
Protocol: as §1

[24] = biological target: T24, NLK (Homo sapiens, UniProt Q9UBE8)
T24 construct: purchased Reaction Biology Corp
Protocol: as §1

[25] = biological target: T25, MINK/MINK1 (Homo sapiens, UniProt Q8N4C8)
T25 construct: purchased Reaction Biology Corp
Protocol: as §1

[26] = biological target: T26, CK1g2 (Homo sapiens, UniProt P78368)
T26 construct: purchased Reaction Biology Corp
Protocol: as §1

[27] = biological target: T27, PKCiota (Homo sapiens, UniProt P41743)
T27 construct: purchased Reaction Biology Corp
Protocol: as §1

[28] = biological target: T28, CLK4 (Homo sapiens, UniProt Q9HAZ1)
T28 construct: purchased Reaction Biology Corp
Protocol: as §1

[29] = biological target: T29, LATS1 (Homo sapiens, UniProt O95835)
T29 construct: purchased Reaction Biology Corp
Protocol: as §1

[30] = biological target: T30, RIPK2 (Homo sapiens, UniProt O43353)
T30 construct: purchased Reaction Biology Corp
Protocol: as §1

[31] = biological target: T31, EPHB1 (Homo sapiens, UniProt P54762)
T31 construct: purchased Reaction Biology Corp
Protocol: as §1

[32] = biological target: T32, WNK1 (Homo sapiens, UniProt Q9H4A3)
T32 construct: purchased Reaction Biology Corp
Protocol: as §1

[33] = biological target: T33, TIE2/TEK (Homo sapiens, UniProt Q02763)
T33 construct: purchased Reaction Biology Corp
Protocol: as §1

[34] = biological target: T34, ABL2/ARG (Homo sapiens, UniProt P42684)
T34 construct: purchased Reaction Biology Corp
Protocol: as §1

[35] = biological target: T35, LIMK2 (Homo sapiens, UniProt P53671)
T35 construct: purchased Reaction Biology Corp
Protocol: as §1

[36] = biological target: T36, PKG1b (Homo sapiens, UniProt Q13976)
T36 construct: purchased Reaction Biology Corp
Protocol: as §1

[37] = biological target: T37, RSK1 (Homo sapiens, UniProt Q15418)
T37 construct: purchased Reaction Biology Corp
Protocol: as §1

[38] = biological target: T38, GLK/MAP4K3 (Homo sapiens, UniProt Q8IVH8)
T38 construct: purchased Reaction Biology Corp
T38 sequence (Q8IVH8 whole entry): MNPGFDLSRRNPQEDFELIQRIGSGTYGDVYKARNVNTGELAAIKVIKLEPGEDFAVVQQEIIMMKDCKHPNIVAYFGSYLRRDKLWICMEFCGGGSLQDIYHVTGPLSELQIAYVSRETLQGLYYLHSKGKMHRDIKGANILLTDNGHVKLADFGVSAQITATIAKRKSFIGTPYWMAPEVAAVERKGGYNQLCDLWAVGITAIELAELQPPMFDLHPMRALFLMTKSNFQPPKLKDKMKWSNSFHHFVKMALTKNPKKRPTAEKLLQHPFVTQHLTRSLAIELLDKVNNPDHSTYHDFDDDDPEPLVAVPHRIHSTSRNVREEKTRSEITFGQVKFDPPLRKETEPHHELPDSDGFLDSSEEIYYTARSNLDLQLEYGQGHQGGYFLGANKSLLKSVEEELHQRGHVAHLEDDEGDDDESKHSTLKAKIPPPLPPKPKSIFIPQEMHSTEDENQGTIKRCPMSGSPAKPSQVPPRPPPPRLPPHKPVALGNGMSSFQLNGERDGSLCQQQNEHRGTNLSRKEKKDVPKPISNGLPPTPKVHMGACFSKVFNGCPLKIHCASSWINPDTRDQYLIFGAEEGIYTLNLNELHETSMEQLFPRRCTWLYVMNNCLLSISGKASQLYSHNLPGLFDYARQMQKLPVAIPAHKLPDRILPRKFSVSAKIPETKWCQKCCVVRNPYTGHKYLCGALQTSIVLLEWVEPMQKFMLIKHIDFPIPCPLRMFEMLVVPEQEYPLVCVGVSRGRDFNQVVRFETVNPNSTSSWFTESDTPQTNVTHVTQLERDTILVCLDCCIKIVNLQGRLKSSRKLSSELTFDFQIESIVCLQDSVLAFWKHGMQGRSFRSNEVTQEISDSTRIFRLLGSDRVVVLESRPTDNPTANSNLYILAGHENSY
Protocol: as §1

Cc1ccc(NC(=O)c2ccc(CN3CCN(C)CC3)c(C(F)(F)F)c2)cc1-c1cnc2sc(N)nc2c1 [6r]
inhibition at 1 µM [1]: 0% | inhibition at 1 µM [2]: 17.1% | inhibition at 1 µM [3]: 8.3% | inhibition at 1 µM [4]: 4.3% | inhibition at 1 µM [5]: 0% | inhibition at 1 µM [6]: 21.7% | inhibition at 1 µM [7]: 37.8% | inhibition at 1 µM [8]: 12.5% | inhibition at 1 µM [9]: 0% | inhibition at 1 µM [10]: 0% | inhibition at 1 µM [11]: 32.4% | inhibition at 1 µM [12]: 4.2% | inhibition at 1 µM [13]: 0% | inhibition at 1 µM [14]: 6.6% | inhibition at 1 µM [15]: 6.1% | inhibition at 1 µM [16]: 17.4% | inhibition at 1 µM [17]: 0% | inhibition at 1 µM [18]: 5.8% | inhibition at 1 µM [19]: 0% | inhibition at 1 µM [20]: 41.1% | inhibition at 1 µM [21]: 0% | inhibition at 1 µM [22]: 48.1% | inhibition at 1 µM [23]: 72.3% | inhibition at 1 µM [24]: 7.3% | inhibition at 1 µM [25]: 0% | inhibition at 1 µM [26]: 38.9% | inhibition at 1 µM [27]: 8.6% | inhibition at 1 µM [28]: 7.7% | inhibition at 1 µM [29]: 1.5% | inhibition at 1 µM [30]: 20.6% | inhibition at 1 µM [31]: 65.7% | inhibition at 1 µM [32]: 6.9% | inhibition at 1 µM [33]: 24.4% | inhibition at 1 µM [34]: 87.2% | inhibition at 1 µM [35]: 39.9% | inhibition at 1 µM [36]: 3.3% | inhibition at 1 µM [37]: 23.4% | inhibition at 1 µM [38]: 15%

Reference: paper PMC9817970 (Cancers, 2022)
